Patent US11685732B2, “MYST family histone acetyltransferase inhibitors” (Epizyme, Inc., priority 2017, dated 2023)

How the values were obtained:
KAT-5 = KAT-5 (Homo sapiens (Human), UniProt Q92993); experiment: KAT-5 biochemical inhibition assay (SAMDI mass spectrometry)
Method in brief: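 KAT-5 at 9 nM final was preincubated with serially diluted compound (2% DMSO) in 50 mM Tris pH 8.0 with 1 mM DTT. Reaction ran with 1 μM peptide substrate and 0.5 μM acetyl-CoA for 90 min at 25° C, was quenched with 0.5% formic acid, and was read by SAMDI-TOF mass spectrometry.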

KAT-6A = KAT-6A (Homo sapiens (Human), UniProt Q92794); experiment: KAT-6A biochemical inhibition assay (SAMDI mass spectrometry)
Chain of KAT-6A (Q92794 other isoform, or with tags, fused parts or gaps): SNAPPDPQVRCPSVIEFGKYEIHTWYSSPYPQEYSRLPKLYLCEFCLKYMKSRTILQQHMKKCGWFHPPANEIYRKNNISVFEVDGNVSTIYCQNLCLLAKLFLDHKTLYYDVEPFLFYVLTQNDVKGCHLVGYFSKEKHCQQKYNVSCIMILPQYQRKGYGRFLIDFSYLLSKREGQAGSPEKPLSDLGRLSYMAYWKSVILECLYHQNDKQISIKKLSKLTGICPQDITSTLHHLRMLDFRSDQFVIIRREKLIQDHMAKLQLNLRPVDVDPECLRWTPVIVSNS
Method in brief: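 Enzyme (12.5 nM final) pre-incubated with serially diluted compounds (2% DMSO final) in 50 mM Tris pH 8.0 with Tween20, gelatin and 1 mM DTT. Reaction started with 1 μM peptide substrate and 1 μM acetyl-CoA, run 90 min at 25 °C, quenched with 0.5% formic acid, read by SAMDI-TOF mass spectrometry; IC50 derived.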

KAT-7 = KAT-7 (Homo sapiens (Human), UniProt O95251); experiment: KAT-7 biochemical inhibition assay (SAMDI mass spectrometry)
Chain of KAT-7 (O95251 other isoform, or with tags, fused parts or gaps): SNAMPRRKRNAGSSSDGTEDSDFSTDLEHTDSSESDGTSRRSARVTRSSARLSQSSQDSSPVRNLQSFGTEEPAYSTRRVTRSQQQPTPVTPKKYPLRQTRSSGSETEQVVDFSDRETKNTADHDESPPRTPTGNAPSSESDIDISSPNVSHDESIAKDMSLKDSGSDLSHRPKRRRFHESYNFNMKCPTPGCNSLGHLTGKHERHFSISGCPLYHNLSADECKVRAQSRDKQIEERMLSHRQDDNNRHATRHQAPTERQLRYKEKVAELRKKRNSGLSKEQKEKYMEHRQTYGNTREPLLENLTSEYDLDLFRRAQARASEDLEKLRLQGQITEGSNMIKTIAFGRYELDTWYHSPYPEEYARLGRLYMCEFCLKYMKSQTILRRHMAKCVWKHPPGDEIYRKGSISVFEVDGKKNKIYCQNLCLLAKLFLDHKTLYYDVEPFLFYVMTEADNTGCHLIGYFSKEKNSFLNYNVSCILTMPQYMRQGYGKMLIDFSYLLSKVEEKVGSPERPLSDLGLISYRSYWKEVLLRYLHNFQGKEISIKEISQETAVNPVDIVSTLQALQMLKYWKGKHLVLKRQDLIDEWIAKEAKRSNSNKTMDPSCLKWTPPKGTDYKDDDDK
Method in brief: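 KAT-7 (6 nM) was pre-incubated with serially diluted compound (2% DMSO) in Tris pH 8.0 with DTT. Reaction with 1 μM peptide and 2 μM acetyl-CoA ran 120 min at 25 °C and was stopped with 0.5% formic acid. Acetylation was read by SAMDI-TOF mass spectrometry to give IC50.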

KAT-8 = KAT-8 (Homo sapiens (Human), UniProt Q9H7Z6); experiment: KAT-8 biochemical inhibition assay (SAMDI mass spectrometry)
Chain of KAT-8 (Q9H7Z6 other isoform, or with tags, fused parts or gaps): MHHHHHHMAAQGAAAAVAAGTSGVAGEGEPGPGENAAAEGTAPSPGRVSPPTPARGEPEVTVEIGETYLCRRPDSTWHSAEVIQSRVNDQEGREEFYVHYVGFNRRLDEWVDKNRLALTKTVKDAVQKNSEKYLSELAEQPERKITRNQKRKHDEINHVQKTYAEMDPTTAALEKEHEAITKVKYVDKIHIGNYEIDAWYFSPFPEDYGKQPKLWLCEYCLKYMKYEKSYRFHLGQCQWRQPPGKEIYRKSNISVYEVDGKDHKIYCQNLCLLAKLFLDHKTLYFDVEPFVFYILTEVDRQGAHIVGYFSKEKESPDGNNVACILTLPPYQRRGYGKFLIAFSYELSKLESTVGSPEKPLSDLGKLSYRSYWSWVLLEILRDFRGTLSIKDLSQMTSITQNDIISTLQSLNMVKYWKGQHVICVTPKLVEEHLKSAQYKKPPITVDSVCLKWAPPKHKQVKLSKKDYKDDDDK
Method in brief: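 Compounds in 2% DMSO pre-incubated with 12.5 nM enzyme in 50 mM Tris pH 8.0 with Tween20, gelatin and 1 mM DTT. Then 1 μM peptide and 5 μM acetyl-CoA were added, 90 min at 25 °C; formic acid stop and SAMDI-TOF mass spectrometry for IC50.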

Chain of KAT-5 (Q92993 other isoform, or with tags, fused parts or gaps): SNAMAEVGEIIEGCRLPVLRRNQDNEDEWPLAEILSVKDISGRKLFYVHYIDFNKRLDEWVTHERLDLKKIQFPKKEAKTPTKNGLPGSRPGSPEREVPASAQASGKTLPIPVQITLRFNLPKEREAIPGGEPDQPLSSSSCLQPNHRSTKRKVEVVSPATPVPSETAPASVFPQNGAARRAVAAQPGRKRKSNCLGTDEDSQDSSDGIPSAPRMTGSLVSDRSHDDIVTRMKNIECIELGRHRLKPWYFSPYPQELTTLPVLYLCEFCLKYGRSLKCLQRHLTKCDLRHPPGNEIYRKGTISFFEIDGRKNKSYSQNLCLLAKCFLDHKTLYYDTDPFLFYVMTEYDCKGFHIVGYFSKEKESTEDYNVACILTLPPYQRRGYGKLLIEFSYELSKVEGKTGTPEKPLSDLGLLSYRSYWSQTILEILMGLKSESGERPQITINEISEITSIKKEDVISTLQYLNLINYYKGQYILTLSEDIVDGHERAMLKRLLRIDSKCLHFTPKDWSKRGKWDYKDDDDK

Structure (SMILES)	IC50 (KAT-5) [µM]	IC50 (KAT-6A) [µM]	IC50 (KAT-7) [µM]	IC50 (KAT-8) [µM]
Cn1cnc(-c2cc(Cl)c(F)c(C(=O)NNS(=O)(=O)c3cn(C)nn3)c2)c1 [Compound I-69]	10 to 50	10 to 50	< 10	10 to 50
COCCc1c(-c2cc(Cl)c(F)c(C(=O)NNS(=O)(=O)CC3CCOCC3)c2)cnn1C [Compound I-373]	10 to 50	10 to 50	10 to 50	10 to 50
Cc1cc(-c2cnn(C)c2)cc(C(=O)NNS(=O)(=O)C2CCCCC2)c1F [Compound I-156]	10 to 50	> 100	< 10	> 100
COCC(=O)N1CCCC(CS(=O)(=O)NNC(=O)c2cc(-c3cn(CCO)cn3)cc(C)c2F)C1 (stereo not shown) [Compound I-148]	10 to 50	10 to 50	10 to 50	10 to 50
Cn1cnc(-c2cc(Cl)c(F)c(C(=O)NNS(=O)(=O)c3cnn(CCO)c3)c2)c1 [Compound I-362]	10 to 50	10 to 50	< 10	10 to 50
Cn1cnc(-c2cc(Cl)c(F)c(C(=O)NNS(=O)(=O)C3COC3)c2)c1 [Compound I-42]	> 100	> 100	< 10	> 100
CNC(=O)N1CC(CS(=O)(=O)NNC(=O)c2cc(-c3cn(C)cn3)cc(Cl)c2F)C1 [Compound I-160]	10 to 50	10 to 50	< 10	10 to 50
CNC1CCCC(CS(=O)(=O)NNC(=O)c2cc(-c3cn(C)cn3)cc(Cl)c2F)C1 (stereo not shown) [Compound I-280]	10 to 50	10 to 50	< 10	10 to 50
Cn1c(Cl)nc(-c2cc(Cl)c(F)c(C(=O)NNS(=O)(=O)C3CCOCC3)c2)c1Cl [Compound I-11]	50 to 100	10 to 50	50 to 100	> 100
CN(C)C(=O)N1CC(CS(=O)(=O)NNC(=O)c2cc(-c3cn(C)cn3)cc(Cl)c2F)C1 [Compound I-167]	10 to 50	< 10	< 10	10 to 50
Cn1cnc(-c2cc(Cl)c(F)c(C(=O)NNS(=O)(=O)CC3CCN(S(=O)(=O)C4CC4)C3)c2)c1 (stereo not shown) [Compound I-84]	< 10	< 10	< 10	10 to 50
Cn1cnc(-c2cc(Cl)c(F)c(C(=O)NNS(=O)(=O)C3CCCC3)c2)c1 [Compound I-15]	10 to 50	50 to 100	< 10	> 100
CNC(=O)N[C@H]1C[C@@H](CS(=O)(=O)NNC(=O)c2cc(-c3cn(C)cn3)cc(Cl)c2F)C1 [Compound I-186]	< 10	< 10	< 10	10 to 50
Cc1cc(-c2cn(C)cn2)cc(C(=O)NNS(=O)(=O)CC2CCCN(C(=O)OC(C)(C)C)C2)c1F (stereo not shown) [Compound I-132]	< 10	< 10	< 10	> 100

Results, then the molecule that gave them:

IC50 (KAT-5) [µM]	IC50 (KAT-6A) [µM]	IC50 (KAT-7) [µM]	IC50 (KAT-8) [µM]	Structure (SMILES)
< 10	10 to 50	< 10	10 to 50	Cn1cnc(-c2cc(Cl)c(F)c(C(=O)NNS(=O)(=O)C[C@H]3CC[C@@H](N(C)C(=O)OC(C)(C)C)CC3)c2)c1 [Compound I-331]
< 10	< 10	< 10	10 to 50	Cn1cnc(-c2cc(Cl)c(F)c(C(=O)NNS(=O)(=O)C[C@H]3C[C@H](NC(=O)OC(C)(C)C)C3)c2)c1 [Compound I-124]
< 10	< 10	< 10	10 to 50	CNC(=O)N[C@H]1CC[C@H](CS(=O)(=O)NNC(=O)c2cc(-c3cn(C)cn3)cc(Cl)c2F)CC1 [Compound I-176]
< 10	< 10	< 10	10 to 50	Cn1cc(-c2cc(Cl)c(F)c(C(=O)NNS(=O)(=O)CC3CCCCC3)c2)nn1 [Compound I-55]
< 10	< 10	< 10	10 to 50	Cn1cnc(-c2cc(Cl)c(F)c(C(=O)NNS(=O)(=O)CC3CCC3)c2)c1 [Compound I-31]
< 10	50 to 100	10 to 50	> 100	COCCn1cnc(-c2cc(C)c(F)c(C(=O)NNS(=O)(=O)CC3CCCN(C(=O)OC(C)(C)C)C3)c2)c1 (stereo not shown) [Compound I-135]
< 10	< 10	< 10	10 to 50	Cn1cnc(-c2cc(Cl)c(F)c(C(=O)NNS(=O)(=O)c3cccc(Cl)c3)c2)c1 [Compound I-324]
< 10	< 10	< 10	10 to 50	Cn1cnc(-c2cc(Cl)c(F)c(C(=O)NNS(=O)(=O)CC3CCC(NC(=O)OC(C)(C)C)C3)c2)c1 (stereo not shown) [Compound I-285]
< 10	10 to 50	< 10	10 to 50	CC(C)C(=O)N[C@H]1CC[C@@H](CS(=O)(=O)NNC(=O)c2cc(-c3cn(C)cn3)cc(Cl)c2F)CC1 [Compound I-222]
< 10	< 10	< 10	10 to 50	Cn1cnc(-c2cc(Cl)c(F)c(C(=O)NNS(=O)(=O)Cc3ccccc3)c2)c1 [Compound I-111]
< 10	< 10	< 10	10 to 50	Cn1cnc(-c2cc(Cl)c(F)c(C(=O)NNS(=O)(=O)C[C@H]3CCC[C@H](OCc4ccccc4)C3)c2)c1 [Compound I-288]
< 10	< 10	< 10	10 to 50	CN(C)C(=O)NC1CCCC(CS(=O)(=O)NNC(=O)c2cc(-c3cn(C)cn3)cc(Cl)c2F)C1 (stereo not shown) [Compound I-104]
< 10	< 10	< 10	10 to 50	CN(C(=O)OC(C)(C)C)C1CCC(CS(=O)(=O)NNC(=O)c2cc(-c3cn(C)cn3)cc(Cl)c2F)CC1 (stereo not shown) [Compound I-296]
< 10	< 10	< 10	10 to 50	CN1CCN([C@H]2C[C@H](CS(=O)(=O)NNC(=O)c3cc(-c4cn(C)cn4)cc(Cl)c3F)C2)C1=O [Compound I-312]
< 10	50 to 100	> 100	> 100	O=C(NNS(=O)(=O)CC1CCOCC1)c1cc(-n2ccnc2)cc(Cl)c1F [Compound I-47]
< 10	< 10	< 10	10 to 50	CC(=O)Nc1cccc(S(=O)(=O)NNC(=O)c2cc(-c3cn(C)cn3)cc(Cl)c2F)c1 [Compound I-367]
< 10	< 10	< 10	10 to 50	Cn1cnc(-c2cc(Cl)c(F)c(C(=O)NNS(=O)(=O)C[C@H]3CCC[C@H](NC(=O)OC(C)(C)C)C3)c2)c1 [Compound I-350]
< 10	< 10	< 10	10 to 50	O=C(NNS(=O)(=O)CC1CCCCC1)c1cc(-c2cn(Cc3ncco3)cn2)cc(Cl)c1F [Compound I-219]
< 10	< 10	< 10	10 to 50	CN(C)C(=O)N[C@H]1C[C@H](CS(=O)(=O)NNC(=O)c2cc(-c3cn(C)cn3)cc(Cl)c2F)C1 [Compound I-180]
< 10	< 10	< 10	10 to 50	CC(C)S(=O)(=O)N1CCC(CS(=O)(=O)NNC(=O)c2cc(-c3cn(C)cn3)cc(Cl)c2F)C1 (stereo not shown) [Compound I-92]
